Assay results: US20100197599A1, “USE OF A PEPTIDE AS A THERAPEUTIC AGENT” (priority 2007, published 2010)
No end group written: not given here.

Assays:
HIV-1IIIB = assay: HIV-1 antiviral assay in CEM-SS cells (MTS readout); conditions: positive controls
Interferon-γ (IFN-γ) = assay: Th1/Th2 cytokine profiling assay, IFN-γ; conditions: murine spleen cells, 10 micrograms per ml; for induction of the production of IFN-γ: Ovalbumin restimulation, 72 hours
From the text: (§1) The Balb/c mice (originated in 1923, it is a popular strain and is used in many different research disciplines. Also classified as an inbred from the production of 20 or more successive brother-sister matings, the Balb/c mouse is albino and small in size) were immunized on Days 1, 15, and 29 with Ovalbumin (Ovalbumin is the main protein found in egg white, commonly used to stimulate an immunological reaction in test animals) in PBS (5 micrograms/injection). On day 50, spleens of the mice were harvested (3 weeks after last boost with Ovalbumin). […] Thereafter, additional Ovalbumin was added to the cells at 10 micrograms/ml for in vitro restimulation of the cells. 72 hours later, cell supernatants were harvested and assayed using the Becton Dickinson Mouse Th1/Th2 Cytokine CBA Kit. This kit can be used to measure Interleukin-2 (IL-2), Interleukin-4 (IL-4), Interleukin-5 (IL-5), Interferon-γ (IFN-γ), and Tumor Necrosis Factor-α (TNF-α) protein levels in a single sample.

RAW 264.7 cells = assay: Phagocytosis assay (Fluorescein-labeled Escherichia coli, flow cytometry); type: cell-based, Mouse; conditions: 10 micrograms per ml, Fluorescein-labeled E. coli
Method: RAW 264.7 (Mouse leukaemic monocyte macrophage cell line) cells were obtained from ATCC and grown in RPMI 1640 medium containing 10% FBS. […] After the cells were incubated for additional 60 min at 37° C. and allowed to ingest the Fluorescein-labeled Escherichia coli bacteria, cells were fixed with 1% paraformaldehyde. The samples were then analyzed by flow cytometry to determine the amount of phagocytosis as a function of brightness (the greater the phagocytic activity, the more fluorescence in the macrophage population). Data are reported as % positive and the mean fluorescence intensity (MFI) of positively stained cells.

[1] = tested on: hepatitis B virus (HBV) ayw strain; assay: HBV assay in HepG2-2.2.15 cells (secreted HBV DNA, TaqMan PCR); type: cell-based; conditions: HepG2-2.2.15 liver cells, 10 micrograms per ml, six days
Human A549 cells = assay: Apoptosis prevention assay (C2 ceramide, Annexin-5); type: cell-based; conditions: 10 micrograms per ml pretreatment 30 min
HCMV strain AD169 = assay: HCMV plaque formation assay in MRC-5 cells; conditions: for inhibition of HCMV plaque formation as compared to the virus control experiment: 10 micrograms per ml, 7-10 days
Interleukin-2 (IL-2) = assay: Th1/Th2 cytokine profiling assay, IL-2; conditions: murine spleen cells, 10 micrograms per ml
From the text: (§2) The Balb/c mice (originated in 1923, it is a popular strain and is used in many different research disciplines. Also classified as an inbred from the production of 20 or more successive brother-sister matings, the Balb/c mouse is albino and small in size) were immunized on Days 1, 15, and 29 with Ovalbumin (Ovalbumin is the main protein found in egg white, commonly used to stimulate an immunological reaction in test animals) in PBS (5 micrograms/injection). On day 50, spleens of the mice were harvested (3 weeks after last boost with Ovalbumin). […] Thereafter, additional Ovalbumin was added to the cells at 10 micrograms/ml for in vitro restimulation of the cells. 72 hours later, cell supernatants were harvested and assayed using the Becton Dickinson Mouse Th1/Th2 Cytokine CBA Kit. This kit can be used to measure Interleukin-2 (IL-2), Interleukin-4 (IL-4), Interleukin-5 (IL-5), Interferon-γ (IFN-γ), and Tumor Necrosis Factor-α (TNF-α) protein levels in a single sample. The kit performance has been optimized for analysis of physiologically relevant concentrations (μg/ml levels) of specific cytokine proteins in tissue culture supernatants and serum samples.

Interleukin-5 (IL-5) = assay: Th1/Th2 cytokine profiling assay, IL-5; conditions: murine spleen cells, 10 micrograms per ml
From the text: as §2

[2] = tested on: Primary Human endothelial cells (HUVEC); assay: Endothelial cell migration assay; type: cell-based; conditions: 10 micrograms per ml, 22 hours
Method: Thereafter, designated concentration of testing peptides—10 micrograms per ml—was added in duplicate wells.

Interleukin-4 (IL-4) = assay: Th1/Th2 cytokine profiling assay, IL-4; conditions: murine spleen cells, 10 micrograms per ml
From the text: as §2

[3] = tested on: Tumor Necrosis Factor-α (TNF-α); assay: Th1/Th2 cytokine profiling assay, TNF-α; conditions: murine spleen cells, 10 micrograms per ml; for change of the production of TNF-alpha: Ovalbumin restimulation, 72 hours
From the text: as §1

HUVEC = assay: Endothelial tube formation assay; type: cell-based, human; conditions: 10 micrograms per ml, 20 hours
From the text: Positive control was vehicle only.

[4] = Ovalbumin restimulation, 72 hours

Row | Compound | antiviral activity of positive control compounds (HIV-1IIIB) | IFNγ spleen cells; TH1 response (% of control) (Interferon-γ (IFN-γ)) | induction of the production of IFN-γ (Interferon-γ (IFN-γ)) | induction of phagocytosis as compared to the control experiment (RAW 264.7 cells) | inhibition of HBV replication as compared to the virus control infection [1] | reduction of the ceramide-induced apoptosis on human lung cells (Human A549 cells) | inhibition of HCMV plaque formation as compared to the virus control experiment (HCMV strain AD169) | IL-2 spleen cells (% of control) (Interleukin-2 (IL-2)) | IL-5 spleen cells; TH2 response (% of control) (Interleukin-5 (IL-5)) | IL-4 spleen cells; TH2 response (% of control) (Interleukin-4 (IL-4)) | TNF-a spleen cells; TH1 response (% of control) [3] | change of the production of TNF-alpha [3] | also measured
1 | CC(C)(C)NC(=O)[C@@H]1CN(Cc2cccnc2)CCN1C[C@@H](O)C[C@@H](Cc1ccccc1)C(=O)N[C@H]1c2ccccc2C[C@H]1O [indinavir] | expected levels of antiviral activity |  |  |  |  |  |  |  |  |  |  |  | 
2 | Tyr-Gly-Gly-Phe-Leu-Arg-Lys-Tyr-Pro-Lys-OH (YGGFLRKYPK-OH) [peptide 2] |  | 130.3 % of control | 30.3% | 54.3% | no effect | 17.9% | 6.9% | 141.5 % of control | 67.5 % of control | 170.6 % of control | 101.0 % of control | did not significantly change | induction of the production of IL-2 (Interleukin-2 (IL-2); [4]): 41.5%; change of the production of IL-5 (Interleukin-5 (IL-5); [4]): did not significantly change; induction of the migration of human endothelial cells [2]: 11%; induction of the production of IL-4 (Interleukin-4 (IL-4); [4]): 70.6%; inhibition of the tube formation of human endothelial cells (HUVEC): 5%
3 | Cc1cn([C@H]2C[C@H](N=[N+]=[N-])[C@@H](CO)O2)c(=O)[nH]c1=O [AZT] | expected levels of antiviral activity |  |  |  |  |  |  |  |  |  |  |  | 
4 | Met-Ala-Pro-Arg-Gly-Phe-Ser-Cys-Leu-Leu-Leu-Leu-Thr-Ser-Glu-Ile-Asp-Leu-Pro-Val-Lys-Arg-Arg-Ala-OH (MAPRGFSCLLLLTSEIDLPVKRRA-OH) [peptide 1] |  | 122.3 % of control | 22.3% | 94.3% | 3.9% | 10.7% | 3.2% | 50.6 % of control | 63.5 % of control | 75.1 % of control | 104.2 % of control | did not significantly change | decrease of the production of IL-2 (Interleukin-2 (IL-2); [4]): 49.4%; decrease of the production of IL-5 (Interleukin-5 (IL-5); [4]): 36.5%; inhibition of the migration of human endothelial cells [2]: 3%; change of the production of IL-4 (Interleukin-4 (IL-4); [4]): did not significantly change; induction of the tube formation of human endothelial cells (HUVEC): 23%
5 | Nc1nc(O)c2ncn(COC(CO)CO)c2n1 [Ganciclovir, reference compound] |  |  |  |  |  |  |  |  |  |  |  |  | antiviral activity of positive control compound (HCMV strain AD169; HCMV AD169, positive control): expected levels of antiviral activity
